{"source": "paper PMC6382874", "about": "“Succinylation-dependent mitochondrial translocation of PKM2 promotes cell survival in response to nutritional stress” (Cell Death & Disease, 2019)", "key": {"PKM1": {"biological_target": "T1, PKM1 (Homo sapiens, UniProt P14618)", "T1 construct": "His-tag (N); made in house; host or cells: Escherichia coli BL21", "T1 sequence (P14618 1-531 isoform P14618-2)": "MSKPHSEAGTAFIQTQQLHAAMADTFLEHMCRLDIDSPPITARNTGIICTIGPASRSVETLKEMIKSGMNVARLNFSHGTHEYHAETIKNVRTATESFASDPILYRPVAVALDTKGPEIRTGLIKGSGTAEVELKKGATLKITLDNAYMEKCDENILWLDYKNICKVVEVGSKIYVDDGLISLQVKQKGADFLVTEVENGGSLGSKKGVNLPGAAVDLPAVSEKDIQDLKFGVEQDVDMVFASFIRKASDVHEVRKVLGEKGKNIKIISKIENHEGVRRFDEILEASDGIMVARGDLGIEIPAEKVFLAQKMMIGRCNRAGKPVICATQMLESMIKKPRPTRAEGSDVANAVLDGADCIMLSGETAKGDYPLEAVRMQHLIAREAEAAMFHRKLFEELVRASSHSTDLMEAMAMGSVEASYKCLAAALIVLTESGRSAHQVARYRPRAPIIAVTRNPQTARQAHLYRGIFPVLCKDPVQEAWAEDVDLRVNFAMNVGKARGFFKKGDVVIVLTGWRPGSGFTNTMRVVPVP", "assay": "fluorescent PK-LDH coupled assay, PKM1", "assay_type": "biochemical", "details": "recombinant enzyme, PK-LDH coupled assay; read-out: IC50 (PKM1)", "experimental": "Human cDNA for PKM2, PKM1, and VDAC3 were separately cloned into a pET28a (+) and pGEX-4T-1 vector with an N-terminal His-tag and N-terminal GST-tag and purified from the Escherichia coli strain BL21 (Invitrogen) using Ni–agarose beads and GST agarose beads (Qiagen) as described previously. PKL was purchased from Sino Biological Inc. in China.\nPyruvate kinase activity was measured with a fluorescent pyruvate kinase–lactate dehydrogenase coupled assay as described previously. All compounds were tested in a kinetic mode by coupling the generation of pyruvate by pyruvate kinase to the depletion of NADH through lactate dehydrogenase. For PKM2, 40 μL of buffer (50 mM Tris–HCl, pH 7.5, 10 mM KCl, 5 mM MgCl2), 1 μL of compound and 5 μL of enzyme solution were dispensed into Corning black solid 96-well plates and incubated for 15 min. Totally, 55 μL of substrate mix (final concentration, 0.5 mM PEP, 4.0 mM ADP, 0.12 mM NADH, 0.25 mM FBP, and 1 unit LDH) were then added, and the plates were placed in a FlexStation3 (Molecular Devices), followed by determination of NADH fluorescence at 30 s exposure intervals for 3–6 min. Data were collected on a FlexStation3."}, "VDAC3": {"tested_on": "VDAC3", "assay": "VDAC3 protein level (western blot) in HCT116 cells", "assay_type": "cell-based, human", "details": "10 or 20 µM, 8 h", "from_the_text": "HCT116 cell lysates were subject to immunoprecipitation with control IgG and anti-VDAC3 antibodies. d, e In vitro binding assay of purified His-tagged-PKM2 and GST-tagged-VDAC3. f K433E enhanced the interaction of PKM2 and VDAC3. Stagged-WT PKM2, a succinylation mimic K433E and a succinylation null mutant K433R and flag-VDAC3 were co-transfected into HCT116 cells for Stag bead pull down that specially pulls down Stagged proteins. g Glucose starvation enhanced the interaction of PKM2 and VDAC3. […]\nFig. 6 Compound 8 blocks PKM2 mitochondrial translocation under nutritional stress and inhibits tumor growth in vivo. a Compound 8 blocks glucose starvation induced PKM2 mitochondrial translocation. […] HCT116 cells were transfected with HA-tagged PKM2, cells were harvested and subjected to stag pull down after 8 h 20 µM compound 8 treatment. c Compound 8 induces VDAC3 for degradation. cells were harvested and evaluated VDAC3 protein levels after 8 h 10 or 20 µM compound 8 treatment. d, e Compound 8 caused a decrease in the rate of NADH oxidation. […] NAD/NADH ratios in HCT116 cell lysates were evaluated by LC–MS. f Compound 8 inhibited ATP production in HCT116 cells. g The tumor volume (n = 7) of HCT116 xenografts from mice with intraperitoneal injection of compound 8 and vehicle control […]"}, "HCT116 cells": {"tested_on": "HCT116 cells", "assay": "ATP measurement, Cell Titer-Glo, HCT116 cells", "assay_type": "cell-based, human", "details": "10 or 20 μM, 8 h", "experimental": "HCT116 cells were cultured in DMEM containing 10% FBS and seeded into six-well plates. Twenty-four hour after seeding, the medium was changed to DMEM containing 10 or 20 μM compound 8 for 8 h. ATP levels were measured using the Cell Titer-Glo Luminescent Cell Viability Assay (Promega)."}, "HCT116 xenografts": {"tested_on": "HCT116 xenografts", "assay": "HCT116 xenograft tumor growth in nude mice", "assay_type": "in vivo, nude mice (BALB/C)", "details": "15mg/kg, intraperitoneal, once every two days", "experimental": "All animal procedures were performed in accordance with guidelines approved by the Animal Experimentation Ethics Committee of Peking University. Female nude mice (BALB/C, 4–6 weeks old) were injected with 2.0 × 10^6 HCT116 cells subcutaneously in the armpit. Approximately, 10 days later, pairs of mice (N = 7) were injected with compound 8 or vehicle control. Intraperitoneal injection was performed in the mouse. The animals were injected once every two days. Tumor measurements were performed once every 2 days. Tumor volume was calculated using the following equation: V = L(S2)π/6, where L is the longer and S is the shorter of the two tumor dimensions."}, "PKM2": {"biological_target": "PKM2 (Homo sapiens, UniProt P14618)", "sequence (P14618 2-531 limits assumed)": "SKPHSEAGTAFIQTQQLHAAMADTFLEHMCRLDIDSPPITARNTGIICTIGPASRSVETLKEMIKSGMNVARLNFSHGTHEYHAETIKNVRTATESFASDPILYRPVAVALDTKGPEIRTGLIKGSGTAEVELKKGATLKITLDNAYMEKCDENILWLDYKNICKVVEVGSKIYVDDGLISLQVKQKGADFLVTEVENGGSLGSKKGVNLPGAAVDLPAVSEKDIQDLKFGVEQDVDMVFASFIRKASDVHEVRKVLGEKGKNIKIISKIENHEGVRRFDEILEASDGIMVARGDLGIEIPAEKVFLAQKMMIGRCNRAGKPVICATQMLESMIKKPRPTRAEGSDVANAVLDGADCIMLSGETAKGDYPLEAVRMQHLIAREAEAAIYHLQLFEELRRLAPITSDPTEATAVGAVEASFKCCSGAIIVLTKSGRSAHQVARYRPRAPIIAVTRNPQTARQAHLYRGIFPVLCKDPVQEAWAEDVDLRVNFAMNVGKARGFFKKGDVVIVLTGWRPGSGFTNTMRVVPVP", "assay": "pyruvate kinase activity in lysate of treated HCT116 cells", "assay_type": "cell-based", "design": "endogenous in cells; host or cells: HCT116", "details": "6 h treatment, Fig. 5c", "experimental": "HCT116 cells were seeded overnight into 6-well plates at 1,000,000 cells/well in DMEM media. Test compounds were added for 6 h. Cells were washed two times with ice-cold phosphate-buffered saline (PBS) and lysed in lysis buffer. Lysate was analyzed for pyruvate kinase activity as described above."}}, "data": [{"smiles": "CCCN(CCC)P(N)(=O)OCC1=CC(=O)c2ccccc2C1=O", "note": "(stereo not drawn) [Compound 8]", "values": [{"measurement": "IC50", "setting": "PKM1", "value": "10.5 ± 1.52", "unit": "µM"}, {"measurement": "VDAC3 protein level", "setting": "VDAC3", "value": "caused VDAC3 degradation"}, {"measurement": "cellular ATP production", "setting": "HCT116 cells", "value": "inhibited cellular ATP production in a concentration-dependent manner"}, {"measurement": "colon cancer xenograft growth (tumor volume)", "setting": "HCT116 xenografts", "value": "significantly reduced"}, {"measurement": "inhibition of PKM2 activity in cancer cells", "setting": "PKM2", "value": "inhibits PKM2 activity in HCT116 cells in a dose dependent manner"}, {"measurement": "inhibition of PKM2 activity in cancer cells", "setting": "PKM2; listed as compound 8", "value": "dose dependent"}]}]}
